Structures can show the parent of a compound that is named as a salt.

One may read the melting point as the temperature of the solid-liquid transition.

Compound `O=C(OCc1cscn1)N1CCC(COc2ccc(-c3ccc(F)cc3)cc2)C1` (racemic) [No. 22, Thiazol-4-ylmethyl 3-(4′-fluorobiphenyl-4-yloxymethyl)-pyrrolidine-1-carboxylate] came in with a melting point of 115 to 117 °C.

On to `O=C(OCc1cscn1)N1CCC(COc2ccc(Cl)c(C(F)(F)F)c2)C1` (racemic) [No. 30, Thiazol-4-ylmethyl (+/−)-3-(4-chloro-3-{trifluoromethyl}phenoxymethyl)pyrrolidine-1-carboxylate], for which the melting point fell in the range of 60 to 62 °C.

Consider `O=C(OCc1cscn1)N1CCC(CCOc2ccc(-c3ccc(F)cc3)cc2)CC1` [No. 18, Thiazol-4-ylmethyl 4-[2-(4′-fluorobiphenyl-4-yloxy)-ethyl]piperidine-1-carboxylate], for which the melting point was in the range of 62 to 64 °C.

In turn, `O=C(OCc1cscn1)N1CCC(COc2ccc3ccncc3c2)C1` (racemic) [No. 29, Thiazol-4-ylmethyl (+/−)-3-(isoquinolin-7-yloxymethyl)pyrrolidine-1-carboxylate] had a melting point of 121 to 123 °C.

As to `N#Cc1ccc(OCCC2CCN(C(=O)OCc3cscn3)CC2)cc1` [No. 10, Thiazol-4-ylmethyl 4-[2-(4-cyanophenoxy)ethyl]-piperidine-1-carboxylate], the melting point was 108 to 110 °C.

For `O=C(OCc1cscn1)N1CCC(COc2ccc3ccccc3c2)C1` (racemic) [No. 17, Thiazol-4-ylmethyl 3-(naphth-2-yloxymethyl)pyrrolidine-1-carboxylate], the melting point lay within 90 to 92 °C.

`CC(C)(c1ccccc1)c1ccc(OCC2CCN(C(=O)OCc3cscn3)C2)cc1` (racemic) [No. 25, Thiazol-4-ylmethyl (+/−)-3-[4-(1-methyl-1-phenyl-ethyl)phenoxymethyl]pyrrolidine-1-carboxylate] had a melting point of 76 to 78 °C.

As for `O=C(OCc1cscn1)N1CCC(COc2ccc3c(Cl)cccc3c2)C1` (racemic) [No. 23, Thiazol-4-ylmethyl (+/−)-3-(5-chloronaphth-2-yloxymethyl)pyrrolidine-1-carboxylate], the melting point is 89 to 91 °C.

For `O=C(OCc1cscn1)N1CCC(COc2ccc(Cl)c(Cl)c2)C1` (racemic) [No. 13, Thiazol-4-ylmethyl (+/−)-3-(3,4-dichlorophenoxymethyl)pyrrolidine-1-carboxylate], the melting point was 78 to 80 °C.

The compound `O=C(OCc1cscn1)N1CCC(COc2ccc(Cl)c3ccccc23)C1` (racemic) [No. 16, Thiazol-4-ylmethyl (+/−)-3-(4-chloronaphth-1-yloxymethyl)pyrrolidine-1-carboxylate] returned a melting point of 84 to 86 °C.

`NC(=O)c1cc(COC(=O)N2CCC(CCOc3ccc(F)cc3)CC2)on1` [No. 198, 3-Carbamoylisoxazol-5-ylmethyl 4-[2-(4-fluorophenoxy)ethyl]piperidine-1-carboxylate] had a melting point of 106 to 108 °C.

`O=C(OCc1cncs1)N1CCC(CCOc2ccc(C(F)(F)F)cc2)CC1` [No. 8, Thiazol-5-ylmethyl 4-[2-(4-{trifluoromethyl}phenoxy)-ethyl]piperidine-1-carboxylate]: the melting point lay in the range of 47 to 49 °C.

Compound `COc1ccc2ccc(OCCC3CCN(C(=O)OCc4cscn4)CC3)cc2c1` [No. 9, Thiazol-4-ylmethyl 4-[2-(7-methoxynaphth-2-yloxy)ethyl]-piperidine-1-carboxylate] had a melting point of 95 to 97 °C.

Regarding `O=C(OCc1cscn1)N1CCC(COc2ccc3cccnc3c2)C1` (racemic) [No. 28, Thiazol-4-ylmethyl (+/−)-3-(quinolin-7-yloxymethyl)-pyrrolidine-1-carboxylate], the melting point was in the range of 94 to 96 °C.

As to `COc1ccc2cc(OCCC3CCN(C(=O)OCc4cscn4)CC3)ccc2c1` [No. 14, Thiazol-4-ylmethyl 4-[2-(6-methoxynaphth-2-yloxy)-ethyl]piperidine-1-carboxylate], the melting point was in the range of 100 to 102 °C.

Consider `O=C(OCc1cscn1)N1CCC(CCOc2ccc(Cl)cc2)CC1` [No. 5, Thiazol-4-ylmethyl 4-[2-(4-chlorophenoxy)ethyl]-piperidine-1-carboxylate], for which the melting point lay within 53 to 55 °C.

`COc1ccc2cc(OCC3CCN(C(=O)OCc4cc(C(N)=O)no4)C3)ccc2c1` (racemic) [No. 201, 3-Carbamoylisoxazol-5-ylmethyl (+/−)-3-(6-methoxynaphth-2-yloxymethyl)pyrrolidine-1-carboxylate] came in with a melting point of 193 to 195 °C.

On to `O=C(OCc1cncs1)N1CCC(CCOc2ccc(F)cc2)CC1` [No. 6, Thiazol-5-ylmethyl 4-[2-(4-fluorophenoxy)ethyl]-piperidine-1-carboxylate], for which the melting point fell in the range of 96 to 98 °C.

The compound `O=C(OCc1cscn1)N1CCC(COc2ccc3c(F)cccc3c2)C1` (racemic) [No. 31, Thiazol-4-ylmethyl (+/−)-3-(5-fluoronaphth-2-yloxymethyl)pyrrolidine-1-carboxylate] had a melting point of 76 to 78 °C.

`O=C(OCc1cscn1)N1CCC(CCOc2ccc3ncccc3c2)CC1` (as salt: HCl) [No. 19, Thiazol-4-ylmethyl 4-[2-(quinolin-6-yloxy)ethyl]-piperidine-1-carboxylate] displayed a melting point of 140 to 150 °C.

`COc1ccc2cc(OCC3CCN(C(=O)OCc4cscn4)C3)ccc2c1` (racemic) [No. 11, Thiazol-4-ylmethyl (+/−)-3-(6-methoxynaphth-2-yloxymethyl)pyrrolidine-1-carboxylate] gave a melting point of 128 to 130 °C.

Turning to `O=C(OCc1cscn1)N1CCC(COc2ccc3cnccc3c2)C1` (racemic) [No. 27, Thiazol-4-ylmethyl (+/−)-3-(isoquinolin-6-yloxymethyl)pyrrolidine-1-carboxylate], the melting point lay in the range of 122 to 124 °C.

`O=C(OCc1nccs1)N1CCC(COc2ccc(-c3ccc(F)cc3)cc2)C1` (racemic) [No. 197, Thiazol-2-ylmethyl (+/−)-3-(4′-fluorobiphenyl-4-yloxymethyl)pyrrolidine-1-carboxylate]: the melting point lay in the range of 81 to 83 °C.

The compound `O=C(OCc1cscn1)N1CCC(COc2cccc(OC(F)(F)F)c2)C1` (racemic) [No. 24, Thiazol-4-ylmethyl (+/−)-3-(3-{trifluoromethoxy}-phenoxymethyl)pyrrolidine-1-carboxylate] returned a melting point of 54 to 56 °C.

Compound `O=C(OCc1cncs1)N1CCC(CCOc2ccc(Cl)cc2)CC1` [No. 7, Thiazol-5-ylmethyl 4-[2-(4-chlorophenoxy)ethyl]-piperidine-1-carboxylate] yielded a melting point of 93 to 97 °C.

`O=C(OCc1nccs1)N1CC[C@@H](COc2ccc3ccccc3c2)C1` (single isomer, unassigned) [No. 194] yielded a melting point of 100 to 112 °C.

`O=C(OCc1cscn1)N1CCC(CCOc2ccc3cnccc3c2)CC1` (as salt: HCl) [No. 20, Thiazol-4-ylmethyl 4-[2-(isoquinolin-6-yloxy)ethyl]-piperidine-1-carboxylate]: the melting point is 150 to 160 °C.

Compound `O=C(OCc1nccs1)N1CC[C@H](COc2ccc3ccccc3c2)C1` (single isomer, unassigned) [No. 195] yielded a melting point of 112 to 114 °C.

These data come from patent US9000010B2, “Alkyl-heterocycle carbamate derivatives, their preparation and their therapeutic application” (Sanofi, priority 2010, dated 2015).
